ChEMBL document CHEMBL4425164, “5-Alkyl-2-urea-Substituted Pyridines: Identification of Efficacious Glucokinase Activators with Improved Properties” (ACS Med Chem Lett, 2016)
≈ marks a conversion by molar mass, not a printed value.

Assays:
[1] = biological target: T1, Hexokinase-4 (Homo sapiens, UniProt P35557); assay: Activation of human recombinant glucokinase using 5 mM glucose as substrate in presence of NAD+ and 4% HSA by glucose 6-phosphate dehydrogenase coupled assay
T1 sequence (P35557 whole entry): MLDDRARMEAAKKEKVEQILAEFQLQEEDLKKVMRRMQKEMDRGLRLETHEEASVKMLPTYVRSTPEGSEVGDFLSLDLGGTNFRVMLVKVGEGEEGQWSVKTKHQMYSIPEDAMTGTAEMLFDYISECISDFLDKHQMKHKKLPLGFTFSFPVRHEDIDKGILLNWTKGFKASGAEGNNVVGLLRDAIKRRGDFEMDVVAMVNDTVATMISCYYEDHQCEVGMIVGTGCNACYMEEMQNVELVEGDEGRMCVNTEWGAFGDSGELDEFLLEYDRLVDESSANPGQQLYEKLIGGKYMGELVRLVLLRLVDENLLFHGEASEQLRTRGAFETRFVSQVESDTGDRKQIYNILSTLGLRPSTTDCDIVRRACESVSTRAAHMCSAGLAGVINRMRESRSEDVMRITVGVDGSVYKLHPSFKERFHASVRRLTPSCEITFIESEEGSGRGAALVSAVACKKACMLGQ

[2] = biological target: T2, Hexokinase-4 (Homo sapiens) (UniProt P35557); assay: Activation of human recombinant glucokinase assessed as enzyme affinity for glucose […] as substrate in presence of NAD+ by glucose 6-phosphate dehydrogenase coupled assay
T2 sequence (whole entry): T1 sequence (P35557 whole entry)

[3] = biological target: T1, Hexokinase-4; assay: Activation of human recombinant glucokinase using 5 mM glucose as substrate in presence of NAD+ by glucose 6-phosphate dehydrogenase coupled assay
[4] = biological target: T2, Hexokinase-4 (Homo sapiens); assay: Activation of human recombinant glucokinase assessed as Vmax ratio using 0.16 to 80 mM of glucose as substrate in presence of NAD+ by glucose 6-phosphate dehydrogenase coupled assay relative to control
[5] = Clearance in rat at 0.5 mg/kg, iv; assay type: ADME, organism-based; settings: in vivo
[6] = Solubility of the compound in PBS at pH 7.4; assay type: physicochemical; settings: buffer
[7] = biological target: T2, Hexokinase-4 (Homo sapiens); assay: Ratio of EC50 for activation of human recombinant glucokinase in presence of 4% HSA to EC50 for activation of human recombinant glucokinase in absence of 4% HSA
[8] = Intrinsic clearance in human liver microsomes; assay type: ADME, Microsome; settings: read-out: CLH
[9] = Oral bioavailability in rat at 2 mg/kg; assay type: ADME, organism-based; settings: in vivo
[10] = AUC in mouse at 5 mg/kg, po; assay type: ADME, organism-based; settings: in vivo
[11] = Volume of distribution at steady state in rat at 0.5 mg/kg, iv; assay type: ADME, organism-based; settings: in vivo, read-out: Vdss
[12] = Volume of distribution at steady state in mouse at 1 mg/kg, iv; assay type: ADME, organism-based; settings: in vivo, read-out: Vdss
[13] = Half life in mouse at 1 mg/kg, iv; assay type: ADME, organism-based; settings: in vivo
[14] = Half life in rat at 0.5 mg/kg, iv; assay type: ADME, organism-based; settings: in vivo
[15] = Clearance in mouse at 1 mg/kg, iv; assay type: ADME, organism-based; settings: in vivo
[16] = test system: Mus musculus; assay: Antidiabetic activity in po dosed ob/ob mouse diabetic model assessed as decrease in blood glucose AUC administered 30 mins prior to oral glucose load measured at 30 to 120 mins by OGTT; assay type: functional, organism-based
[17] = Oral bioavailability in mouse at 5 mg/kg; assay type: ADME, organism-based; settings: in vivo
[18] = AUC in rat at 2 mg/kg, po; assay type: ADME, organism-based; settings: in vivo
[19] = Fraction unbound in human plasma; assay type: ADME, cell-free
[20] = test system: Mus musculus; assay: Antidiabetic activity in ob/ob mouse diabetic model assessed as decrease in blood glucose AUC at 30 mg/kg, po administered 30 mins prior to oral glucose load measured at 30 to 120 mins by OGTT; assay type: functional
[21] = Fraction unbound in mouse plasma; assay type: ADME, cell-free
[22] = Fraction unbound in rat plasma; assay type: ADME, cell-free
[23] = test system: Rattus norvegicus; assay: Antidiabetic activity in Sprague-Dawley rat assessed as decrease in blood glucose AUC at 30 mg/kg, po measured at 0.5 to 5 hrs by OGTT; assay type: functional
[24] = test system: Rattus norvegicus; assay: Antidiabetic activity in Sprague-Dawley rat assessed as decrease in blood glucose AUC at 100 mg/kg, po measured at 0.5 to 5 hrs by OGTT; assay type: functional
[25] = Drug metabolism assessed as oxidation at THP ring site by metabolic ID study
[26] = test system: Rattus norvegicus; assay: Antidiabetic activity in Sprague-Dawley rat assessed as decrease in blood glucose AUC at 3 mg/kg, po measured at 0.5 to 5 hrs by OGTT; assay type: functional
[27] = test system: Rattus norvegicus; assay: Antidiabetic activity in po dosed Sprague-Dawley rat assessed as decrease in blood glucose AUC measured at 0.5 to 5 hrs by OGTT; assay type: functional, organism-based
[28] = test system: Rattus norvegicus; assay: Antidiabetic activity in Sprague-Dawley rat assessed as decrease in blood glucose AUC at 10 mg/kg, po measured at 0.5 to 5 hrs by OGTT; assay type: functional

Compound	EC50 [1] [µM]	S0.5 [2] [mM]	EC50 [3] [µM]	Ratio [4]	other results
CNC(=O)Nc1cc(Oc2cncc(C)c2)c([C@H]2C[C@@H](C(C)(C)O)C2)cn1	0.12	0.68	0.051	0.54	
CNC(=O)Nc1cc(Oc2cncc(OC)c2)c([C@H]2COCCC2(F)F)cn1	0.99	0.51	0.53	0.89	
CNC(=O)Nc1cc(Oc2cncc(OC)c2)c([C@@H]2CCCOC2)cn1	0.11	0.62	0.72	0.94	
CNC(=O)Nc1cc(Oc2cncc(OC)c2)c(C2=CCCOC2)cn1	0.13	0.69	0.4	0.99	clearance [5]: 38.3 mL/min/kg
CNC(=O)Nc1cc(Oc2cncc(OC)c2)c([C@@H]2CCOC2)cn1	0.19	0.53	0.11	1.1	
CNC(=O)Nc1cc(Oc2cncc(C)c2)c([C@H]2C[C@](C)(O)C2)cn1	0.3	0.7	0.16	0.71	
CNC(=O)Nc1cc(Oc2cncc(C)c2)c([C@H]2C[C@@H]2C(C)(C)O)cn1 (relative stereo)		0.62		0.87	
CNC(=O)Nc1cc(Oc2cncc(C)c2)c(CCCO)cn1	0.1	0.55	0.066	0.96	solubility [6]: 500 µM (≈ 158 µg/mL); Ratio EC50 [7]: 1 to 3
CNC(=O)Nc1cc(Oc2cncc(C)c2)c([C@H]2C[C@@H]2CO)cn1 (relative stereo)		0.58		1	
CNC(=O)Nc1cc(Oc2cncc(OC)c2)c(C2CCOCC2)cn1	0.15	0.62	0.11	1	clearance [5]: 46.7 mL/min/kg
CNC(=O)Nc1cc(Oc2cncc(C)c2)c([C@H]2CCC[C@H](O)C2)cn1	0.097	0.51	0.072	1	
CNC(=O)Nc1cc(Oc2cncc(C)c2)c([C@H]2C[C@@H](CO)C2)cn1	0.07	0.57	0.04	0.82	
CNC(=O)Nc1cc(Oc2cncc(OC)c2)c([C@@H]2CCCN(C)C2)cn1	2.9	0.73	2.3	0.78	
CNC(=O)Nc1cc(Oc2cncc(C)c2)c([C@H]2C[C@@H](O)C2)cn1	0.14	0.66	0.11	0.97	microsomal CLint [8]: < 14 µL/min/mg; bioavailability [9]: 39%; AUC [10]: 3.69 µM·h; Vd [11]: 1.2 L/kg; Vd [12]: 0.65 L/kg; solubility [6]: 332 µM (≈ 109 µg/mL); half-life [13]: 1.2 h; half-life [14]: 3 h; clearance [15]: 14.5 mL/min/kg; clearance [5]: 21.7 mL/min/kg; inhibition [16]: Dose-dependent effect; bioavailability [17]: 20%; AUC ([18]; read-out: AUC): 1.84 µM·h; Fu [19]: 25%; inhibition in vivo at 30 mg/kg [20]: 32%; Fu [21]: 9.4%
CNC(=O)Nc1cc(Oc2cncc(OC)c2)c([C@H]2CCCOC2)cn1	0.22	0.65	0.16	1.1	Fu [22]: 28%; F [9]: 20%; inhibition in vivo at 30 mg/kg [23]: 20%; AUC [10]: 0.13 µM·h; Vd [11]: 0.66 L/kg; Vd [12]: 3.3 L/kg; solubility [6]: 303 µM (≈ 109 µg/mL); half-life [13]: 0.3 h; half-life [14]: 0.3 h; inhibition in vivo at 100 mg/kg [24]: 40%; clearance [15]: 157 mL/min/kg; Drug metabolism [25]: Metabolite detected; CL [5]: 28.3 mL/min/kg; inhibition in vivo at 3 mg/kg [26]: 3%; bioavailability [17]: 5%; inhibition [27]: Dose-dependent effect; inhibition in vivo at 10 mg/kg [28]: 13%; AUC [18]: 3.64 µM·h; Fu [19]: 16%; Fu [21]: 14%
CNC(=O)Nc1cc(Oc2cncc(OC)c2)c([C@@H]2COCC[C@@H]2O)cn1 (relative stereo)		0.66		0.83	
CNC(=O)Nc1cc(Oc2cncc(C)c2)c(-c2ccc(OCC(C)(C)O)nc2)cn1					Vd [11]: 2.7 L/kg; half-life [14]: 2.3 h; clearance [5]: 30 mL/min/kg; AUC ([18]; read-out: AUC): 2.7 µM·h
CNC(=O)Nc1cc(Oc2cncc(C)c2)c(C(C)CO)cn1 (stereo not given)	0.82	0.56	0.67	0.95	Ratio EC50 [7]: 1 to 3
CNC(=O)Nc1cc(Oc2cncc(C)c2)c(CCCCO)cn1	0.056	0.54	0.037	0.87	solubility [6]: 500 µM (≈ 165 µg/mL); Ratio EC50 [7]: 1 to 3
CNC(=O)Nc1cc(Oc2cncc(C)c2)c([C@H]2C[C@H](O)C2)cn1	0.11	0.55	0.072	0.92	
CNC(=O)Nc1cc(Oc2cncc(C)c2)c([C@]2(O)C[C@H](O)C2)cn1	7.5	0.67	6.7	0.88	
CNC(=O)Nc1cc(Oc2cncc(OC)c2)c([C@H]2COCC[C@@H]2F)cn1	0.18	0.85	0.17	1	clearance [5]: 26.7 mL/min/kg
CCOCCc1cnc(NC(=O)NC)cc1Oc1cncc(C)c1	0.11	0.59	0.098	0.84	solubility [6]: 500 µM (≈ 165 µg/mL); Ratio EC50 [7]: 1 to 3
CNC(=O)Nc1cc(Oc2cncc(C)c2)c(CCO)cn1	0.33	0.6	0.13	0.9	solubility [6]: 450 µM (≈ 136 µg/mL); Ratio EC50 [7]: 1 to 3
CNC(=O)Nc1cc(Oc2cncc(OC)c2)c(C2=CCOCC2)cn1	0.098	0.82	0.066	1	clearance [5]: 41.7 mL/min/kg
CNC(=O)Nc1cc(Oc2cncc(C)c2)c([C@@H]2CC[C@@H](O)C2)cn1		0.47		0.94	
